In patent US20190231793A1, “USE OF HARRINGTONINES IN THE TREATMENT OF BREAST CANCER, IN PARTICULAR TRIPLE-NEGATIVE BREAST CANCER” (priority 2016, published 2019):
Where two headings read alike, the source gives them in different places.

How the values were obtained:
[1] = cytotoxic = toxicity for tumor cells in culture; anticancer = data obtained in clinical trials; cited from earlier work
[2] = tested on: apoptosis regulatory proteins in MDA-MB-231; test: Western blot, expression of apoptosis regulatory proteins in line MDA-MB-231; format: cell-based; conditions: 100 nM HHT
Description: (§1) Western blot: 5×10^5 cells, in 10 ml of medium, were inoculated in the 100 mm Petri dishes. After 24 hours of rest, the cells were incubated with 100 nM of HHT for different times, staggered for 2 hours and 48 hours. Then, the cells were washed and lysed directly into the dishes (without trypsinization) using RIPA buffer (Pierce-ThermoScientific), containing a mixture of protease inhibitors (Sigma). The protein concentration was determined by the method of Bradford. Protein electrophoresis was performed in 12-30% polyacrylamide gels. After transfer to the PVDF membrane, the revelation was carried out by ECL Plus (Amersham).

MDA-MB-231 [3] = test: Cell cycle by flow cytometry; format: cell-based; conditions: MDA-MB-231, 48 hours, 20 nM or 50 nM HHT
Description: (§2) Cell cycle and apoptosis: the number of cells in different phases of the cell cycle or in apoptosis was determined by flow cytometry using FITC Annexin V Apoptosis Detection Kit 1 (BD Biosciences) and following the manufacturer's recommendations. Briefly, 3×10^4 cells of each line were seeded in 6-well plates and, after 24 h resting, treated with increasing concentrations of HHT for 6-72 h, then washed and incubated with propidium iodide and or with FITC annexin V). The fluorescence was measured using a BD LSH II cytofluorometer (BD Biosciences).

MDA-MB-468 [4] = test: Cell cycle by flow cytometry; format: cell-based; conditions: MDA-MB-468, 48 hours, 20 nM or 50 nM HHT
Description: as §2

MDA-MB-157 [5] = test: Cell cycle by flow cytometry; format: cell-based; conditions: MDA-MB-157, 48 hours, 50 nM HHT
Description: as §2

CAL-51 [6] = test: Cell cycle by flow cytometry; format: cell-based; conditions: CAL-51, 48 hours, 20 nM HHT
Description: as §2

MDA-MB-231 [7] = test: Cell viability (SRB), inhibition of cell proliferation; format: cell-based; conditions: Homo sapiens; for viability at 0.05 µM / viability at 0.1 µM: read-out: viable fraction (Fv=% of viable cells)
Description: (§3) MDA-MB-468 (PTEN, RB1, SMAD4, mutated TP53, amplified EGFR/ERBB1) and MDA-MB-231 (highly metastatic, without alteration of PI3K-Akt-mTOR; KRAS, BRAF, CDKN2A, PDGFRA, (NF2, Mutated TP53) were cultured in Liebowitz's medium+10% FCS+200 μg/ml gentamycin, in a CO2-free atmosphere
(§4) Drug: commercial HHT (Sigma-Aldrich), purified by recrystallization according to Liu's technique [U.S. Pat. No. 62,073, 14 May 1987], was provided free of charge by LeukePharma (Le Mans, France). The stock solution of 20 mM HHT citrate was obtained by dissolution in citric acid (Sigma-Aldrich), in equimolar amount or by direct dissolution of the crystalline homoharringtonine salt in sterile purified water. The following dilutions of this stock solution were performed using sterile PBS buffer. All of the solutions was stored at −80° C.
(§5) Cell viability: The cells were seeded in the 96-well plates at the concentration of 5000 cells/well (3.3×10^4/ml) for the MDA-MB-lines, and at the concentration of 1000 cells/well (6.6×10 3 ml) for CAL-51. After 24 hours of rest, at the confluence of 50-60%, the cells were treated with increasing concentrations of HHT for 24 h, 48 h and 72 h. After washing twice with sterile PBS and 48 h rest, the cells were fixed with trichloroacetic acid. After the addition of […] (SRB), the absorbance was measured at 540 nm (Multiskan™ FC plate photometer, Thermo Scientific). IC50s were calculated by CompuSyn (Chou & Talalay, ComboSyn Inc., Paramus, N.J., USA).

MDA-MB-468 [8] = test: as above; format: cell-based
Description: as §3, §4, §5

MDA-MB-231 xenograft = test: In vivo study on MDA-MB-231 triple negative breast tumor xenograft; parameters: species or system Swiss nudes immuno-depressed mice (nu/nu); conditions: 1 mg of HHT (as salt) per kg subcutaneously twice daily for 8 days; difference between day 0 and day 10; control group increased 20-30%
Description: The efficacy of homoharringtonine in vivo on xenografts of the triple-negative breast cancer line (MDA-MB-231), was performed on Swiss nudes immuno-depressed mice (nu/nu), […]. −12 weeks. The tumor was grafted in 16 animals, by injecting 5×10^6 cells of the tumor strain, subcutaneously in the dorsal region, until a tumor volume of 200-300 mm 3 was obtained. 8 mice received 1 mg of HHT (as salt) per kg subcutaneously twice daily for 8 days. The control group (7 mice) received only physiological saline in the same dosage as HHT. Mice were sacrificed 3 days after stopping treatment, recovered xenografts, and measured tumor size. The tissues were then formalin-fixed and paraffin-embedded for subsequent histological analyzes.

MDA-MB-157 [9] = test: Cell viability (SRB), inhibition of cell proliferation; format: cell-based
Description: (§6) Cell Lines: CAL-51 (PIK3CA mutated) and MDA-MB-157 (without apparent genomic alteration of the PI3K-AKT-mTOR axis (NF1, TP53 mutated) were cultured in DMEM+10% FCS+200 μg/ml gentamicin, in humidified atmosphere, at 5% CO 2.
as §4, §5

CAL-51 [10] = test: as above; format: cell-based
Description: as §6, §4, §5

MDA-MB-231 [11] = test: Apoptosis by flow cytometry (FITC Annexin V); format: cell-based; conditions: regardless of concentration or incubation time
Description: as §2

MDA-MB-468 [12] = test: Apoptosis by flow cytometry (FITC Annexin V); format: cell-based; conditions: increasing concentrations, 6-72 h
Description: as §2

MDA-MB-157 [13] = test: Apoptosis by flow cytometry (FITC Annexin V); format: cell-based; conditions: increasing concentrations, 6-72 h
Description: as §2

CAL-51 [14] = test: Apoptosis by flow cytometry (FITC Annexin V); format: cell-based; conditions: increasing concentrations, 6-72 h
Description: as §2

XIAP = test: Western blot, expression of apoptosis regulatory proteins; format: cell-based; conditions: 100 nM HHT; compared with Mcl-1
Description: as §1

Mcl-1 = test: as above; format: cell-based; conditions: 100 nM HHT; all lines analyzed except MDA-MB-231 (CAL-51, MDA-MB-468, MDA-MB-157)
Description: as §1

survivin = test: as above; format: cell-based; conditions: 100 nM HHT; CAL-51; same effect as for Mcl-1 (very fast and strong drop)
Description: as §1

[15] = 24 h, 48 h, 72 h, regardless of the concentrations (p>0.05)
[16] = Homo sapiens, 24 hours, range given for 3 out of 4 lines analyzed

COC(=O)C[C@](O)(CCC(C)(C)O)C(=O)O[C@@H]1C(OC)=C[C@]23CCCN2CCc2cc4c(cc2[C@H]13)OCO4 [(1a), harringtonine]
Activity [1]: anticancer

COC(=O)CC(O)(CC(C)(C)O)C(=O)OC1C(OC)=CC23CCCN2CCc2cc4c(cc2C13)OCO4 (stereo not shown) [(1c), norharringtonine]
Activity [1]: none

COC(=O)C[C@](O)(CCC(C)C)C(=O)O[C@@H]1C(OC)=C[C@]23CCCN2CCc2cc4c(cc2[C@H]13)OCO4 [(1d), deoxyharringtonine]
Activity [1]: anticancer

COC(=O)CC(O)(CCCCC(C)(C)O)C(=O)OC1C(OC)=CC23CCCN2CCc2cc4c(cc2C13)OCO4 (stereo not shown) [(1e), bishomoharringtonine]
Activity [1]: none

COC(=O)[C@@H](O)[C@](O)(CCC(C)C)C(=O)O[C@@H]1C(OC)=C[C@]23CCCN2CCc2cc4c(cc2[C@H]13)OCO4 [(1f), isoharringtonine]
Activity [1]: none

COC(=O)C[C@](O)(CCCC(C)(C)O)C(=O)O[C@@H]1C(OC)=C[C@]23CCCN2CCc2cc4c(cc2[C@H]13)OCO4 [HHT, homoharringtonine]
level of apoptosis regulatory proteins [2]: no effect
Activity [1]: anticancer
effect on the cell cycle (MDA-MB-231 [3]): stopped in the G2/M phase
effect on the cell cycle (MDA-MB-468 [4]): stopped in the G2/M phase
effect on the cell cycle (MDA-MB-157 [5]): accumulation of CAL-51 and MDA-MB-157 cells in Set GO/G1 phase
effect on the cell cycle (CAL-51 [6]): accumulation of CAL-51 and MDA-MB-157 cells in Set GO/G1 phase
viability at 0.05 µM (MDA-MB-231 [7]; MDA-MB-231, 24 h): 58.1 ± 14.5%
viability at 0.1 µM (MDA-MB-231 [7]; MDA-MB-231, 24 h): 41.7 ± 13.3%
viability at 0.05 µM (MDA-MB-231 [7]; MDA-MB-231, 72 h): 25.9 ± 2.4%
viability at 0.1 µM (MDA-MB-231 [7]; MDA-MB-231, 72 h): 18.7 ± 4.8%
IC50 (MDA-MB-231 [7]; MDA-MB-231, 24 hours): 80.5 nM
effect on proliferation versus incubation time (MDA-MB-468 [8]; [15]): independent of the incubation time
IC50 (MDA-MB-468 [8]; [16]): 15.9 to 21.3 nM
decrease in tumor volume (MDA-MB-231 xenograft): 20 to 60%
effect on proliferation versus incubation time (MDA-MB-157 [9]; [15]): independent of the incubation time
IC50 (MDA-MB-157 [9]; [16]): 15.9 to 21.3 nM
effect on proliferation versus incubation time (CAL-51 [10]; [15]): independent of the incubation time
IC50 (CAL-51 [10]; [16]): 15.9 to 21.3 nM
effect on apoptosis (% of cells in early and late apoptosis) (MDA-MB-231 [11]): no significant apoptosis was observed
effect on apoptosis (% of cells in early and late apoptosis) (MDA-MB-468 [12]): induces apoptosis of CAL-51, MDA-MB-468 and MDA-MB-157 cells in a concentration and time dependent manner
effect on apoptosis (% of cells in early and late apoptosis) (MDA-MB-157 [13]): induces apoptosis of CAL-51, MDA-MB-468 and MDA-MB-157 cells in a concentration and time dependent manner
effect on apoptosis (% of cells in early and late apoptosis) (CAL-51 [14]): induces apoptosis of CAL-51, MDA-MB-468 and MDA-MB-157 cells in a concentration and time dependent manner
reduction in the XIAP rate (XIAP): more modest and occurred later
level of Mcl-1 (Mcl-1): very fast and strong drop
level of survivin (survivin): same effect

neoharringtonine [(1g)]
Activity [1]: cytotoxic
